In patent publication EP4786487A1, “PEPTIDE” (Peptidream Inc, priority 2023, dated 2025):
Positions of bridges follow the written chain, without caps; N, C: chain ends. Non-standard residues stand in square brackets, D forms with d. Residues, ends and D or L forms follow the SMILES beside them. NMeF = CN[C@@H](Cc1ccccc1)C(=O)O; Gly(N(CH2)3NH2) = NCCCNCC(=O)O; NMeC = CN[C@@H](CS)C(=O)O; NMeA = CN[C@@H](C)C(=O)O; Dap = NC[C@H](N)C(=O)O; Sar = CNCC(=O)O

Experiments:
[1] = target: T1, GDF-11 (Homo sapiens, UniProt O95390); experiment: HepG2 reporter gene assay, Evaluation Procedure (2): 2-concentrations assay, GDF-11 inhibition; assay type: cell-based; conditions: GDF-11 10 ng/mL; for inhibition at 0.03 µM: HepG2, peptide 30nM, read-out: GDF11 Inhibition 30nM; for inhibition at 0.1 µM: HepG2, peptide 100nM, read-out: GDF11 Inhibition 100nM
T1 construct: purchased R&D systems 1958-GD-G8/CF
T1 sequence (O95390 299-407): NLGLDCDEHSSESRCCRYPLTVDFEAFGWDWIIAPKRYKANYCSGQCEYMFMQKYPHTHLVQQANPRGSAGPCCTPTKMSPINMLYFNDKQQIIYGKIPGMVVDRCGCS
Procedure: (§1) The pGL3(CAGA)12-luc plasmid, namely a pGL3 vector (E1751, Promega) having a luciferase gene inserted downstream of a promoter sequence with 12 CAGA repeats attached, was transfected into HepG2 cell line (HB-8065, ATCC). The culture of HepG2 cell line (HB-8065, ATCC) was performed as in the Evaluation Procedure (1).
(§2) Myostatin (788-G8/CF, R&D systems) or GDF-11 (1958-GD-G8/CF, R&D systems) was added at a final concentration of 10 ng/mL. […] At this time, blank wells, in which neither myostatin, GDF-11, nor each peptide was added, were also prepared and incubated in a CO2 incubator (37°C, 5% CO2) for 20 to 24 hours.
(§3) The medium containing the cells was removed, and a mixture containing PBS (14190144, Thermo) and a chromogenic substrate One-Glo Luciferase Assay System (E6120, Promega) at a ratio of 1:1 was added to each well at 100 µL/well. This was stirred with a plate shaker for 5 min and transferred to a 384-well plate (3570, Corning) at a volume of 20 µL/well.
(§4) The plate was centrifuged at 1,000 × g for 1 min and the luminescence signal (700 nm luminescence) was measured using a plate reader (Envision 2104, PerkinElmer). Based on the measurement results, the inhibition rate at each peptide concentration was calculated. […]

[2] = target: T2, Myostatin (Homo sapiens, UniProt O14793); experiment: HepG2 reporter gene assay, Evaluation Procedure (2): 2-concentrations assay, myostatin inhibition; assay type: cell-based; conditions: Myostatin 10 ng/mL, HepG2; for inhibition at 0.03 µM: peptide 30nM, read-out: Myostatin Inhibition 30nM; for inhibition at 0.1 µM: peptide 100nM, read-out: Myostatin Inhibition 100nM
T2 construct: active myostatin (also called mature myostatin) is a homodimer consisting of two C-terminal growth factor domains; purchased R&D systems 788-G8/CF
T2 sequence (O14793 267-375): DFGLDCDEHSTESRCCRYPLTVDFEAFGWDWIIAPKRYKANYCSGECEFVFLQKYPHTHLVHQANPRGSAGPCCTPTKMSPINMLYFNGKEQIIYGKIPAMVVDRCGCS
Procedure: as §1, §2, §3, §4

SMILES | inhibition at 0.03 µM [1] [%] | inhibition at 0.1 µM [1] [%] | inhibition at 0.03 µM [2] [%] | inhibition at 0.1 µM [2] [%]
CC[C@H](C)[C@@H]1NC(=O)[C@H](Cc2ccccc2)N(C)C(=O)[C@H](Cc2ccc(O)cc2)NC(=O)[C@H](Cc2c[nH]c3ccccc23)NC(=O)[C@H](CCCNC(=N)N)NC(=O)CN(CCCN)C(=O)CSC[C@@H](C(N)=O)NC(=O)[C@H](Cc2ccccc2)N(C)C(=O)[C@H](C)N(C)C(=O)[C@H](CC(C)C)NC(=O)[C@H](Cc2ccccc2)N(C)C(=O)[C@H](CCCNC(=N)N)NC(=O)[C@H](Cc2ccc(O)cc2)NC(=O)[C@H](Cc2ccc(O)cc2)NC(=O)CN(C)C1=O [Myostatin_000099_01ApG] ({CH2CO}-[Gly(N(CH2)3NH2)]RWY[NMeF]I[Sar]YYR[NMeF]L[NMeA][NMeF]C-NH2; thioether N-15) | 0 | 0 | 19 | 65
CC[C@H](C)[C@@H]1NC(=O)[C@H](Cc2ccccc2)N(C)C(=O)[C@H](Cc2ccc(O)cc2)NC(=O)[C@H](Cc2c[nH]c3ccccc23)NC(=O)[C@H](CCCNC(=N)N)NC(=O)[C@H](CN)NC(=O)CSC[C@@H](C(N)=O)NC(=O)[C@H](Cc2ccccc2)N(C)C(=O)[C@H](C)N(C)C(=O)[C@H](CC(C)C)NC(=O)[C@H](Cc2ccccc2)N(C)C(=O)[C@H](CCCNC(=N)N)NC(=O)[C@H](Cc2ccc(O)cc2)NC(=O)[C@H](Cc2ccc(O)cc2)NC(=O)CN(C)C1=O [Myostatin_000099_01Dap] ({CH2CO}-[Dap]RWY[NMeF]I[Sar]YYR[NMeF]L[NMeA][NMeF]C-NH2; thioether N-15) | 0 | 0 | 18 | 62
CC[C@H](C)[C@@H]1NC(=O)[C@H](Cc2ccccc2)N(C)C(=O)[C@H](Cc2ccc(O)cc2)NC(=O)[C@H](Cc2c[nH]c3ccccc23)NC(=O)[C@H](CCCNC(=N)N)NC(=O)[C@H](C)N(C)C(=O)CSC[C@@H](C(N)=O)NC(=O)[C@H](Cc2ccccc2)N(C)C(=O)[C@H](C)N(C)C(=O)[C@H](CC(C)C)NC(=O)[C@H](Cc2ccccc2)N(C)C(=O)[C@H](CCCNC(=N)N)NC(=O)[C@H](Cc2ccc(O)cc2)NC(=O)[C@H](Cc2ccc(O)cc2)NC(=O)CN(C)C1=O [Myostatin_000099_01meA] ({CH2CO}-[NMeA]RWY[NMeF]I[Sar]YYR[NMeF]L[NMeA][NMeF]C-NH2; thioether N-15) | 0 | 0 | 55 | 82
CC[C@H](C)[C@@H]1NC(=O)[C@H](Cc2ccccc2)N(C)C(=O)[C@H](Cc2ccc(O)cc2)NC(=O)[C@H](Cc2c[nH]c3ccccc23)NC(=O)[C@H](C)NC(=O)[C@H](C)NC(=O)CSC[C@@H](C(N)=O)NC(=O)[C@H](Cc2ccccc2)N(C)C(=O)[C@H](C)N(C)C(=O)[C@H](CC(C)C)NC(=O)[C@H](Cc2ccccc2)N(C)C(=O)[C@H](CCCNC(=N)N)NC(=O)[C@H](Cc2ccc(O)cc2)NC(=O)[C@H](Cc2ccc(O)cc2)NC(=O)CN(C)C1=O [Myostatin_000099_02A] ({CH2CO}-AAWY[NMeF]I[Sar]YYR[NMeF]L[NMeA][NMeF]C-NH2; thioether N-15) | 0 | 5 | 64 | 89
CC[C@H](C)[C@@H]1NC(=O)[C@H](Cc2ccccc2)N(C)C(=O)[C@H](Cc2ccc(O)cc2)NC(=O)[C@H](Cc2c[nH]c3ccccc23)NC(=O)[C@H](CN)NC(=O)[C@H](C)NC(=O)CSC[C@@H](C(N)=O)NC(=O)[C@H](Cc2ccccc2)N(C)C(=O)[C@H](C)N(C)C(=O)[C@H](CC(C)C)NC(=O)[C@H](Cc2ccccc2)N(C)C(=O)[C@H](CCCNC(=N)N)NC(=O)[C@H](Cc2ccc(O)cc2)NC(=O)[C@H](Cc2ccc(O)cc2)NC(=O)CN(C)C1=O [Myostatin_000099_02Dap] ({CH2CO}-A[Dap]WY[NMeF]I[Sar]YYR[NMeF]L[NMeA][NMeF]C-NH2; thioether N-15) | 0 | 2 | 50 | 82
CC[C@H](C)[C@@H]1NC(=O)[C@H](Cc2ccccc2)N(C)C(=O)[C@H](Cc2ccc(O)cc2)NC(=O)[C@H](Cc2c[nH]c3ccccc23)NC(=O)[C@H](CCC(=O)O)NC(=O)[C@H](C)NC(=O)CSC[C@@H](C(N)=O)NC(=O)[C@H](Cc2ccccc2)N(C)C(=O)[C@H](C)N(C)C(=O)[C@H](CC(C)C)NC(=O)[C@H](Cc2ccccc2)N(C)C(=O)[C@H](CCCNC(=N)N)NC(=O)[C@H](Cc2ccc(O)cc2)NC(=O)[C@H](Cc2ccc(O)cc2)NC(=O)CN(C)C1=O [Myostatin_000099_02E] ({CH2CO}-AEWY[NMeF]I[Sar]YYR[NMeF]L[NMeA][NMeF]C-NH2; thioether N-15) | 0 | 9 | 58 | 83
CC[C@H](C)[C@@H]1NC(=O)[C@H](Cc2ccccc2)N(C)C(=O)[C@H](Cc2ccc(O)cc2)NC(=O)[C@H](Cc2c[nH]c3ccccc23)NC(=O)[C@H](CCCCN)NC(=O)[C@H](C)NC(=O)CSC[C@@H](C(N)=O)NC(=O)[C@H](Cc2ccccc2)N(C)C(=O)[C@H](C)N(C)C(=O)[C@H](CC(C)C)NC(=O)[C@H](Cc2ccccc2)N(C)C(=O)[C@H](CCCNC(=N)N)NC(=O)[C@H](Cc2ccc(O)cc2)NC(=O)[C@H](Cc2ccc(O)cc2)NC(=O)CN(C)C1=O [Myostatin_000099_02K] ({CH2CO}-AKWY[NMeF]I[Sar]YYR[NMeF]L[NMeA][NMeF]C-NH2; thioether N-15) | 0 | 0 | 35 | 73
CC[C@H](C)[C@@H]1NC(=O)[C@H](Cc2ccccc2)N(C)C(=O)[C@H](Cc2ccc(O)cc2)NC(=O)[C@H](Cc2c[nH]c3ccccc23)NC(=O)[C@@H](C)NC(=O)[C@H](C)NC(=O)CSC[C@H](C(N)=O)NC(=O)[C@H](Cc2ccccc2)N(C)C(=O)[C@H](C)N(C)C(=O)[C@H](CC(C)C)NC(=O)[C@H](Cc2ccccc2)N(C)C(=O)[C@H](CCCNC(=N)N)NC(=O)[C@H](Cc2ccc(O)cc2)NC(=O)[C@H](Cc2ccc(O)cc2)NC(=O)CN(C)C1=O [Myostatin_99_2da_15dc_NH2] ({CH2CO}-A[dA]WY[NMeF]I[Sar]YYR[NMeF]L[NMeA][NMeF][dC]-NH2; thioether N-15) | 15 | 48 | 94 | 98
CC[C@H](C)[C@@H]1NC(=O)[C@H](Cc2ccccc2)N(C)C(=O)[C@H](Cc2ccc(O)cc2)NC(=O)[C@H](Cc2c[nH]c3ccccc23)NC(=O)[C@H](CCCNC(=N)N)NC(=O)[C@H](C)NC(=O)CSC[C@H](C(N)=O)NC(=O)[C@H](Cc2ccccc2)N(C)C(=O)[C@H](C)N(C)C(=O)[C@H](CC(C)C)NC(=O)[C@H](Cc2ccccc2)N(C)C(=O)[C@H](CCCNC(=N)N)NC(=O)[C@H](Cc2ccc(O)cc2)NC(=O)[C@H](Cc2ccc(O)cc2)NC(=O)CN(C)C1=O [Myostatin_000099_15dc] ({CH2CO}-ARWY[NMeF]I[Sar]YYR[NMeF]L[NMeA][NMeF][dC]-NH2; thioether N-15) | 0 | 12 | 69 | 89
CC[C@H](C)[C@@H]1NC(=O)[C@H](Cc2ccccc2)N(C)C(=O)[C@H](Cc2ccc(O)cc2)NC(=O)[C@H](Cc2c[nH]c3ccccc23)NC(=O)[C@H](CCCNC(=N)N)NC(=O)[C@H](C)NC(=O)CSC[C@@H](C(N)=O)N(C)C(=O)[C@H](Cc2ccccc2)N(C)C(=O)[C@H](C)N(C)C(=O)[C@H](CC(C)C)NC(=O)[C@H](Cc2ccccc2)N(C)C(=O)[C@H](CCCNC(=N)N)NC(=O)[C@H](Cc2ccc(O)cc2)NC(=O)[C@H](Cc2ccc(O)cc2)NC(=O)CN(C)C1=O [Myostatin_000099_15meC] ({CH2CO}-ARWY[NMeF]I[Sar]YYR[NMeF]L[NMeA][NMeF][NMeC]-NH2; thioether N-15) | 0 | 4 | 50 | 75
CC[C@H](C)[C@@H]1NC(=O)[C@H](Cc2ccccc2)N(C)C(=O)[C@H](Cc2ccc(O)cc2)NC(=O)[C@H](Cc2c[nH]c3ccccc23)NC(=O)[C@H](CCCNC(=N)N)NC(=O)[C@H](C)NC(=O)CSC[C@@H](C(=O)N[C@@H](CN)C(N)=O)NC(=O)[C@H](Cc2ccccc2)N(C)C(=O)[C@H](C)N(C)C(=O)[C@H](CC(C)C)NC(=O)[C@H](Cc2ccccc2)N(C)C(=O)[C@H](CCCNC(=N)N)NC(=O)[C@H](Cc2ccc(O)cc2)NC(=O)[C@H](Cc2ccc(O)cc2)NC(=O)CN(C)C1=O [Myostatin_000099_16Dap] ({CH2CO}-ARWY[NMeF]I[Sar]YYR[NMeF]L[NMeA][NMeF]C[Dap]-NH2; thioether N-15) | 0 | 11 | 56 | 83
